In one experiment the target is T1, mGluR2 receptor (metabotropic glutamate receptor 2) (Homo sapiens, UniProt Q14416).
T1 construct: expressed in transfected cells
T1 sequence (Q14416 19-872, species assumed): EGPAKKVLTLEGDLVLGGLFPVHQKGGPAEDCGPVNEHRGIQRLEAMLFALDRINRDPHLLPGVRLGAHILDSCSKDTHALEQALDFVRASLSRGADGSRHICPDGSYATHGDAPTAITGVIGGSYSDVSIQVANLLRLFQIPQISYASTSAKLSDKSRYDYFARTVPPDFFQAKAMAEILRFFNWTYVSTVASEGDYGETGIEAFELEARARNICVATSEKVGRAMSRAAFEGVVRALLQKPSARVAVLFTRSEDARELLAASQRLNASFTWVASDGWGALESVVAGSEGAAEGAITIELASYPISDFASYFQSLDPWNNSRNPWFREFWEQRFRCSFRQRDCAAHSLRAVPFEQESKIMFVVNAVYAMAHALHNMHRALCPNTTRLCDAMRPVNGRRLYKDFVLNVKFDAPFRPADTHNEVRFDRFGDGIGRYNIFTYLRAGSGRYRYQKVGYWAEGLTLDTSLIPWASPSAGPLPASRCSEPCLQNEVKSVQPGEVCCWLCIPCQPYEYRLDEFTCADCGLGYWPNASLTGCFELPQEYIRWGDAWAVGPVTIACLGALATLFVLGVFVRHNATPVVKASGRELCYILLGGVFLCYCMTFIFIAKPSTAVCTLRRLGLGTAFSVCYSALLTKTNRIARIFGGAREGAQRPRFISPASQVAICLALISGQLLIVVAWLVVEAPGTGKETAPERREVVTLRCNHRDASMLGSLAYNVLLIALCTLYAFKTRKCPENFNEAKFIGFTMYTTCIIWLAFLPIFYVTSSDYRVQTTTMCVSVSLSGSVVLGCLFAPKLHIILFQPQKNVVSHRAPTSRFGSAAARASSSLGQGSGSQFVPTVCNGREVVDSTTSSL
Kind of experiment: mGluR2 Potentiator Screen, FLIPR, EC10-EC20 glutamate challenge. It counts as cell-based. The settings on record: EC50 (uM). As for the experimental part: Procedure for mGluR2 Potentiator Screen NLB Methods EC10-EC20 Challenge Cell Culture and Plating:
Cells used for this screen are HEK cells stably transfected with the mGluR2 receptor (metabotropic glutamate receptor 2) and the Gα15 G protein. Clones were identified by functional activity (FLIPR). Cells are grown in growth media containing: DMEM High Glucose with Glutamine and Na Pyruvate (GIBCO), 10% (v/v) Heat inactivate FBS (GIBCO) G418 500 ug/ml (from 50 mg/ml stock) (GIBCO) and Blasticidin 3 ug/ml (from 5 mg/ml stock made in H2O) (Invitrogen).
2 days before the assay cell are trypsinized with 0.25% trysin/EDTA (GIBCO), spun down at 1000 rpm for 5 minutes, resuspended in growth media and plated on polystyrene 384 well black wall/clear bottom poly-D-lysine coated plates at a density of approximately 18,000 cells/well in a volume of 50 μL per well. One day before the assay the growth media is removed from the plates by flicking and replaced with media containing DMEM High Glucose without Glutamine and Na Pyruvate (GIBCO) and 10% (v/v) dialyzed FBS (GIBCO). The reason for the removal of glutamine the day before the assay is to minimize the amount of glutamate that will be present during the assay, as endogenous glutarnate released from the cells can reduce the fluorescent response and interfere with the FLIPR screen.
FLIPR Methods and Data Analysis:
On the day of the assay, the FLIPR assay is performed using the following methods:
The pH is adjusted to 7.4 with 1M NaOH. Prepare a 2 mM (approx.) stock solution of Fluo-4.am (Molecular Probes) dye in DMSO −22 μl DMSO per 50 ug vial (440 μL per 1 mg vial). Make a 1 mM (approx.) flou-4, PA working solution per vial by adding 22 μl of 20% pluronic acid (PA) (Molecular Probes) in DMSO to each 50 ug vial (440 μL per 1 mg vial). Prepare a 250 mM Probenecid (Sigma) stock solution by dissolving 0.71 g into 5 ml 1N NaOH and 5 ml assay buffer (for each liter of assay wash buffer). Make 4 uM (approx.) dye incubation media by adding 2.50 ug vials per 11 ml DMEM high glucose without glutamine (220 ml per 1 mg vial). Add 110 μL probenecid stock per 11 ml (2.5 mM final [concentration]). To the dye media add 3 units/ml of glutamic-pyruvic transaminase (GPT, Sigma) and 3 mM Na Pyruvate. The assay has worked with dye concentrations from 2 uM to 8 uM dye as well. To the assay buffer from drug preparation, add 1.83 mls DMSO and 400 μL. 15.8% P104 (from New Leads biology) per liter for final concentrations of 0.18% DMSO and 0.006% P104. To the assay buffer for cell washing, add probenecid in the same manner and concentration that was used for the dye media.
Remove growth media from cell plates by flicking. Add 50 μl/well dye solution. Incubate 1 hour at 37° C. and 5% CO2. Remove dye solution and wash 3 times with assay buffer+probenecid (100 μl probenecid stock per 10 ml buffer), leaving 30 μL/well assay buffer. Wait at least 10-15 minutes. Compounds and agonist challenge additions are performed with the FLIPR. The in addition is for test compounds, which are added as 15 μL of 4× [concentration] of potentiator. The second 2nd addition is 15 μL of 4× [concentration] of agonist or challenge. This achieves 1× concentration of all compounds only after 2nd addition. The 1st and 2nd additions are performed separately using the FLIPR, which give 2 different data files. Compounds are pretreated at least 30 minutes before agonist addition.
Results are analyzed by dividing the peak fluorescent value of the FLIPR response by the […] to achieve a ratio response. The ratios are then analyzed by curve fitting programs. Since potent compounds can give an inverted U dose response curve (due to effects on endogenous glutamate by the potentiators) points are deleted at concentrations higher than the concentration that gives the maximum effect. Maximum values for dose response curves (forced fitting) are derived from standards on the plate.
Compound Preparation and Glutamate Challenge: […]
A word on the EC50: it is the concentration that produces a half-maximal response. `CC(=O)C1(c2ccccc2)CCN(Cc2nc3ccccc3n2C)CC1` [compound 66]: the EC50 is above 5.23 µM. Regarding `COc1cccc(C2(C#N)CCN(Cc3nc4ccccc4n3C)CC2)c1` [compound 72], the EC50 amounted to 10.6 µM. Turning to `CCC(=O)C1(c2ccccc2)CCN(Cc2nc3ccccc3n2C)CC1` [compound 73], the EC50 was 3.97 µM. As to `Cn1c(CN2CCC(C#N)(c3ccccc3)CC2)nc2ccccc21` [compound 77], the EC50 is above 4.71 µM.

The experiment is the same for the next values; noted with them: read-out: EC50.
As to `CCCCC(=O)N1CC2(CCN(Cc3nc4ccccc4n3C)CC2)c2ccccc21` [compound 62], the EC50 turned out to be 0.261 µM. On to `Cn1c(CN2CCC3(CC2)CN(C(=O)c2ccco2)c2ccccc23)nc2ccccc21` [compound 63], for which the EC50 was determined as 4.51 µM. Consider `CCCC(=O)N1CC2(CCN(Cc3nc4ccccc4n3C)CC2)c2ccccc21` [compound 64], for which the EC50 was determined as 1.41 µM.

Consider `COc1cccc(C2CCN(Cc3nc4ccccc4n3C)CC2)c1` [compound 65], for which the EC50 amounted to 0.241 µM. For `Cn1c(CN2CC[C@@H]3c4ccccc4CC[C@@H]3C2)nc2ccccc21` [compound 67], the EC50 came out at 0.693 µM. The same measure, in the same setting: the same measure for `Cn1c(CN2CCC(O)(c3cc(Br)cc(Br)c3)CC2)nc2ccccc21` [compound 68]: 1.24 µM; for `COc1cccc2c1CCCC21CCN(Cc2nc3ccccc3n2C)CC1` [compound 69]: above 6.97 µM. On the same count and under the same terms, next, `Cn1c(CN2CCC(O)(c3ccc(Cl)c(C(F)(F)F)c3)CC2)nc2ccccc21` [compound 71]: 4.35 µM; `Cn1c(CN2CCC(c3ccccc3)CC2)nc2ccccc21` [compound 74]: 0.212 µM. With `Cn1c(CN2CCC(O)(c3ccc(Br)cc3)CC2)nc2ccccc21` [compound 75], the EC50 is above 7.48 µM.

On to `Cn1c(CN2CCC(O)(c3ccc(Cl)cc3)CC2)nc2ccccc21` [compound 76], for which the EC50 was above 5.73 µM.

As for `CC(C)Oc1ccccc1C1CCN(Cc2nc3ccccc3n2C)CC1` [compound 78], the EC50 came out at 0.475 µM. With `Cn1c(CN2CCC(c3ccccc3F)CC2)nc2ccccc21` [compound 79], the EC50 was determined as 0.021 µM. As to `C[C@@H]1CN(Cc2nc3ccccc3n2C)CC[C@]1(C)c1cccc(NS(C)(=O)=O)c1` [compound 80], the EC50 is above 1.25 µM.

In the case of `COC(=O)c1cccc([C@]2(C)CCN(Cc3nc4ccccc4n3C)C[C@@H]2C)c1` [compound 81], the EC50 was determined as 6.08 µM. With `CC1CN(Cc2nc3ccccc3n2C)CC(C)C1(O)c1ccccc1` (stereo not shown) [compound 82], the EC50 is above 7.44 µM. As to `C[C@@H]1CN(c2cccc(C3CCN(Cc4nc5ccccc5n4C)CC3)c2)C[C@H](C)O1` [compound 83], the EC50 was determined as 0.82 µM.

For the compound `Cn1c(CN2CCC(c3ccccc3OCC3CCC3)CC2)nc2ccccc21` [compound 84], the EC50 was 0.744 µM. Regarding `CC1CN(CCOc2ccccc2C2CCN(Cc3nc4ccccc4n3C)CC2)CC(C)O1` (stereo not shown) [compound 85], the half-maximal effective concentration (EC50) is 1.37 µM. With `Cn1c(CN2CCC(c3ccccc3OCC3CCCC3)CC2)nc2ccccc21` [compound 86], the EC50 came out at 2.31 µM.

Regarding `CC(C)OCCOc1ccccc1C1CCN(Cc2nc3ccccc3n2C)CC1` [compound 87], the EC50 came out at 0.621 µM. With `CN(C)CCCOc1ccccc1C1CCN(Cc2nc3ccccc3n2C)CC1` [compound 88], the EC50 is 4.19 µM. In the case of `CCOCCOc1ccccc1C1CCN(Cc2nc3ccccc3n2C)CC1` [compound 89], the EC50 came to 1.75 µM. With `CCOCCCOc1ccccc1C1CCN(Cc2nc3ccccc3n2C)CC1` [compound 91], the EC50 turned out to be 1.4 µM. In the case of `Cn1c(CN2CCC(c3ccccc3OCCC3CC3)CC2)nc2ccccc21` [compound 92], the EC50 is above 3.27 µM.

For the compound `CCCCCOc1ccccc1C1CCN(Cc2nc3ccccc3n2C)CC1` [compound 93], the EC50 came out at 0.324 µM. As for `CC[C@H](C)COc1ccccc1C1CCN(Cc2nc3ccccc3n2C)CC1` [compound 94], the EC50 amounted to 1.61 µM. In the case of `CCCCOc1ccccc1C1CCN(Cc2nc3ccccc3n2C)CC1` [compound 95], the EC50 worked out at 1.04 µM. The same measure, in the same setting: the same measure for `CC(C)COc1ccccc1C1CCN(Cc2nc3ccccc3n2C)CC1` [compound 96]: above 3.92 µM; for `Cn1c(CN2CCC(c3ccccc3OCCc3ccccn3)CC2)nc2ccccc21` [compound 97]: above 9.64 µM. For the compound `CN1CCC[C@H]1COc1ccccc1C1CCN(Cc2nc3ccccc3n2C)CC1` [compound 98], the EC50 was above 4.81 µM. As for `Cn1c(CN2CCC(c3ccccc3OC3CCOCC3)CC2)nc2ccccc21` [compound 99], the EC50 came to 2.12 µM. `CCOc1ccccc1C1CCN(Cc2nc3ccccc3n2C)CC1` [compound 100]: the EC50 amounted to 2.91 µM. On to `Cn1c(CN2CCC(c3ccccc3O[C@H]3CCOC3)CC2)nc2ccccc21` [compound 101], for which the EC50 amounted to 5.72 µM. On to `Cn1c(CN2CCC(c3ccccc3OC3Cc4ccccc4C3)CC2)nc2ccccc21` [compound 102], for which the EC50 was 1.5 µM.

Turning to `CC(Oc1ccccc1C1CCN(Cc2nc3ccccc3n2C)CC1)c1ccccc1` (stereo not shown) [compound 103], the EC50 was above 5.64 µM. With `CCN1CC2(CCN(Cc3nc4ccccc4n3C)CC2)c2cc(Cl)ccc21` [compound 105], the EC50 turned out to be 3.37 µM. Consider `CC(C)CN1CC2(CCN(Cc3nc4ccccc4n3C)CC2)c2ccccc21` [compound 106], for which the EC50 stood at 2.58 µM. With `Cn1c(CN2CCC3(CC2)CN(CC2CCCO2)c2ccc(Cl)cc23)nc2ccccc21` (stereo not shown) [compound 107], the EC50 stood at 6.65 µM.

With `Cn1c(CN2CCC3(CC2)CN(Cc2cccnc2)c2ccc(Cl)cc23)nc2ccccc21` [compound 108], the 50% effective concentration (EC50) is above 8.73 µM.

Regarding `Cn1c(CN2CCC3(CC2)CN(Cc2ccccc2)c2ccccc23)nc2ccccc21` [compound 109], the EC50 was determined as 5.22 µM.

Take `CCN1CC2(CCN(Cc3nc4ccccc4n3C)CC2)c2ccccc21` [compound 110]: the concentration giving a half-maximal response (EC50) came to 4.98 µM. As for `Cn1c(CN2CCC3(CC2)CN(CC(C)(C)C)c2ccccc23)nc2ccccc21` [compound 111], the EC50 was found to be 10.3 µM.

`Cn1c(CN2CCC3(CC2)CN(Cc2cccnc2)c2ccccc23)nc2ccccc21` [compound 112]: the EC50 is above 9.88 µM. In the case of `CC(C)CN1CC2(CCN(Cc3nc4ccccc4n3C)CC2)c2cc(Cl)ccc21` [compound 113], the EC50 stood at 4.37 µM. `CCN1CC2(CCN(Cc3nc4ccccc4n3C)CC2)c2cc(F)ccc21` [compound 114]: the EC50 is 2.38 µM. Same read-out and setting: the same measure for `CC(C)CN1CC2(CCN(Cc3nc4ccccc4n3C)CC2)c2cc(F)ccc21` [compound 115]: 6.49 µM; for `CC(C)CCN1CC2(CCN(Cc3nc4ccccc4n3C)CC2)c2ccccc21` [compound 116]: 3.12 µM; for `Cn1c(CN2CCC3(CC2)CN(CC2CCCO2)c2ccc(F)cc23)nc2ccccc21` (stereo not shown) [compound 117]: above 9.01 µM. As for `CCN1CC2(CCN(Cc3nc4ccccc4n3C)CC2)c2cc(C)ccc21` [compound 118], the EC50 stood at 3.41 µM. In the case of `Cc1ccc2c(c1)C1(CCN(Cc3nc4ccccc4n3C)CC1)CN2CC(C)C` [compound 119], the EC50 is 2.9 µM. As for `Cc1ccc2c(c1)C1(CCN(Cc3nc4ccccc4n3C)CC1)CN2CCC(C)C` [compound 120], the EC50 was found to be 2.7 µM. On to `Cc1cc(C)c2c(c1)C1(CCN(Cc3nc4ccccc4n3C)CC1)CN2CCC(C)C` [compound 121], for which the concentration for a half-maximal effect (EC50) was found to be 1.15 µM. For `Cc1cc(C)c2c(c1)C1(CCN(Cc3nc4ccccc4n3C)CC1)CN2CC1CCCO1` (stereo not shown) [compound 123], the concentration for a half-maximal effect (EC50) was 5.03 µM.

For the origin of these results see patent US20080280933A1, “BENZIMIDAZOLYL COMPOUNDS” (priority 2006, published 2008).
